The compounds below were run against T1, GST-PLK1 (Homo sapiens, UniProt P53350) (assay: Biochemical Characterization Assay: GST-PLK1 kinase HTRF assay with GST-p53 substrate). Details: full-length GST-PLK1, GST-p53 and ATP, 37° C. for 35 minutes, HTRF signal.
T1 construct: Full-length, active GST-PLK1 is purified from Sf9 insect cells; made in house; host or cells: Sf9 insect cells
Experimental: Biochemical Characterization Assay
Full-length, active GST-PLK1 is purified from Sf9 insect cells, and full-length GST-p53 is purified from E. coli. Anti-phospho p53 antibody is from Cell Signaling Technology. Europium-conjugated anti-rabbit antibody is from PerkinElmer Life and Analytical Sciences. APC-conjugated anti-GST antibody is from Prozyme.
To assay compounds of the invention, two microliters of test compound (0.6 nM-4 mM) in DMSO or plain DMSO for control wells, 38 microliters of 20 mM HEPES pH 7, 50 mM NaCl, 10 mM MgCl2, 0.5 mM TCEP, 0.1 mM sodium orthovanadate, 0.1 mg/mL BSA, and 0.05% Triton X-100 (Kinase Assay Buffer) are added. […] Six microliters of GST-PLK1 (3 ug/mL) in Kinase Assay Buffer are then added and the solution incubated at 37° C. for 35 minutes. Six microliters of solution containing 43 mM EDTA to stop the reaction and a 1:600 dilution of anti-phospho-p53 antibody in 20 mM HEPES pH 7, 50 mM NaCl, and 0.5 mg/mL BSA (Antibody Binding Buffer) are added and the solution incubated at 37° C. for 30 minutes. […] The HTRF signal is read on an Envision reader from PerkinElmer Life and Analytical Sciences.

T1 sequence (P53350 whole entry): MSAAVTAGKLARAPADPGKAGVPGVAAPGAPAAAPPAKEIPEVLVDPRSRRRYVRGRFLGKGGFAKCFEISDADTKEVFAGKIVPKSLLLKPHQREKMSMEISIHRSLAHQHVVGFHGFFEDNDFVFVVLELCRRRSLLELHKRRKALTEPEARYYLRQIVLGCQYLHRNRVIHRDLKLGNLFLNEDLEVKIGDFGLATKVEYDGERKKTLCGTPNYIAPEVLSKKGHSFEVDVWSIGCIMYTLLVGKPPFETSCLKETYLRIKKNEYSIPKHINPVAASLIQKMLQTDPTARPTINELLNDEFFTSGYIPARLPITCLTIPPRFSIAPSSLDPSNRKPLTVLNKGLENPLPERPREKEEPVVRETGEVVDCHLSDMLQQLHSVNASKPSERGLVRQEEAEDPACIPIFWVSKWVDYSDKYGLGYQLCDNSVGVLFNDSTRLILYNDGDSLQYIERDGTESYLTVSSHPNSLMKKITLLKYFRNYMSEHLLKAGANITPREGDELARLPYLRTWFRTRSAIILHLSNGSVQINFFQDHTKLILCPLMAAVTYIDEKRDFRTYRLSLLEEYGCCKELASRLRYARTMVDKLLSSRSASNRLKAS

SMILES	IC50
CC1CN(C2CCCC2)c2nc(Nc3ccc(C(=O)NC4CCCCC4)c(Cl)c3)ncc2N(C)C1=O (racemic) [I-85, (rac)-2-Chloro-N-cyclohexyl-4-(9-cyclopentyl-5,7-dimethyl-6-oxo-6,7,8,9-tetrahydro-5H-pyrimido[4,5-b][1,4]diazepin-2-ylamino)-benzamide]	> 5000 nM
CC1CN(C2CCCC2)c2nc(Nc3ccc4oc(-c5cccnc5)nc4c3)ncc2N(C)C1=O (racemic) [I-77, (rac)-9-Cyclopentyl-5,7-dimethyl-2-(2-pyridin-3-yl-benzooxazol-5-ylamino)-5,7,8,9-tetrahydro-pyrimido[4,5-b][1,4]diazepin-6-one]	> 5000 nM
COCCCNC(=O)c1cccc(Nc2ncc3c(n2)N(C2CCCC2)CC(C)C(=O)N3C)c1 (racemic) [I-90, (rac)-3-(9-Cyclopentyl-5,7-dimethyl-6-oxo-6,7,8,9-tetrahydro-5H-pyrimido[4,5-b][1,4]diazepin-2-ylamino)-N-(3-methoxy-propyl)-benzamide]	500 to 5000 nM
CC1CN(C2CCCC2)c2nc(Nc3cccc(C(=O)NC4CCOCC4)c3)ncc2N(C)C1=O (racemic) [I-71, (rac)-3-(9-Cyclopentyl-5,7-dimethyl-6-oxo-6,7,8,9-tetrahydro-5H-pyrimido[4,5-b][1,4]diazepin-2-ylamino)-N-(tetrahydro-pyran-4-yl)-benzamide]	500 to 5000 nM
COc1ccccc1Nc1ncc2c(n1)N(C1CCC1)CCC(=O)N2C [I-25, 9-Cyclobutyl-2-(2-methoxy-phenylamino)-5-methyl-5,7,8,9-tetrahydro-pyrimido[4,5-b][1,4]diazepin-6-one]	> 5000 nM
C=CCN1CC(C)C(=O)N(C)c2cnc(Nc3ccc(C(=O)NC4CCN(C)CC4)cc3OC)nc21 (racemic) [I-65, (rac)-4-(9-Allyl-5,7-dimethyl-6-oxo-6,7,8,9-tetrahydro-5H-pyrimido[4,5-b][1,4]diazepin-2-ylamino)-3-methoxy-N-(1-methyl-piperidin-4-yl)-benzamide]	< 500 nM
COc1cc(C(=O)NC2CCN(C)CC2)ccc1Nc1ncc2c(n1)N(C1CCC1)CCC(=O)N2C [I-24, 4-(9-Cyclobutyl-5-methyl-6-oxo-6,7,8,9-tetrahydro-5H-pyrimido[4,5-b][1,4]diazepin-2-ylamino)-3-methoxy-N-(1-methyl-piperidin-4-yl)-benzamide]	< 500 nM
COc1ccc(C(=O)NCCCN(C)C)cc1Nc1ncc2c(n1)N(C1CCCC1)CC(C)C(=O)N2C (racemic) [I-73, (rac)-3-(9-Cyclopentyl-5,7-dimethyl-6-oxo-6,7,8,9-tetrahydro-5H-pyrimido[4,5-b][1,4]diazepin-2-ylamino)-N-(3-dimethylamino-propyl)-4-methoxy-benzamide]	< 500 nM
CC1CN(C2CCCC2)c2nc(Nc3cccc(C(=O)NCCN(C)C)c3)ncc2N(C)C1=O (racemic) [I-93, (rac)-3-(9-Cyclopentyl-5,7-dimethyl-6-oxo-6,7,8,9-tetrahydro-5H-pyrimido[4,5-b][1,4]diazepin-2-ylamino)-N-(2-dimethylamino-ethyl)-benzamide]	500 to 5000 nM
COc1cc(C(=O)NC2CCN(C)CC2)ccc1Nc1ncc2c(n1)N(C1CCCC1)C(C)CC(=O)N2C (racemic) [I-4, (rac)-4-(9-Cyclopentyl-5,8-dimethyl-6-oxo-6,7,8,9-tetrahydro-5H-pyrimido[4,5-b][1,4]diazepin-2-ylamino)-3-methoxy-N-(1-methyl-piperidin-4-yl)-benzamide]	< 500 nM
COc1cc(C(=O)NCCCn2ccnc2)ccc1Nc1ncc2c(n1)N(C1CCC1)CCC(=O)N2C [I-36, 4-(9-Cyclobutyl-5-methyl-6-oxo-6,7,8,9-tetrahydro-5H-pyrimido[4,5-b][1,4]diazepin-2-ylamino)-N-(3-imidazol-1-yl-propyl)-3-methoxy-benzamide]	< 500 nM
COc1cc(C(=O)NC2CCN(C)CC2)ccc1Nc1ncc2c(n1)N(C1CCOCC1)CC(C)C(=O)N2C (racemic) [I-45, (rac)-4-[5,7-Dimethyl-6-oxo-9-(tetrahydro-pyran-4-yl)-6,7,8,9-tetrahydro-5H-pyrimido[4,5-b][1,4]diazepin-2-ylamino]-3-methoxy-N-(1-methyl-piperidin-4-yl)-benzamide]	< 500 nM
CC1CN(C2CCCC2)c2nc(Nc3ccc(C(=O)Nc4cccnc4)c(Cl)c3)ncc2N(C)C1=O (racemic) [I-82, (rac)-2-Chloro-4-(9-cyclopentyl-5,7-dimethyl-6-oxo-6,7,8,9-tetrahydro-5H-pyrimido[4,5-b][1,4]diazepin-2-ylamino)-N-pyridin-3-yl-benzamide]	> 5000 nM
COc1cc(C(=O)NC2CCN(C)CC2)ccc1Nc1ncc2c(n1)N(C1CCCC1)C(C)C(C)C(=O)N2C (racemic) [I-41, (rac)-4-(9-Cyclopentyl-5,7,8-trimethyl-6-oxo-6,7,8,9-tetrahydro-5H-pyrimido[4,5-b][1,4]diazepin-2-ylamino)-3-methoxy-N-(1-methyl-piperidin-4-yl)-benzamide]	< 500 nM
Cc1cc(C(=O)NC2CCN(C)CC2)ccc1Nc1ncc2c(n1)N(C1CCCC1)CC1(CC1)C(=O)N2C [I-61, 4-[(9-Cyclopentyl-6,7,8,9-tetrahydro-5-methyl-6-oxospiro[5H-pyrimido[4,5-b][1,4]diazepine-7,1′-cyclopropan]-2-yl)amino]-3-methyl-N-(1-methyl-4-piperidinyl)benzamide]	< 500 nM
COc1cc(C(=O)NC2CCN(C)CC2)ccc1Nc1ncc2c(n1)N(C1CCCC1)C1CCCC1C(=O)N2C (racemic) [I-68, (rac)-4-(4-Cyclopentyl-9-methyl-10-oxo-1,2,3,3a,4,9,10,10a-octahydro-4,5,7,9-tetraaza-benzo[f]azulen-6-ylamino)-3-methoxy-N-(1-methyl-piperidin-4-yl)-benzamide]	< 500 nM
COc1cc(C(=O)NC2CCN(C)CC2)ccc1Nc1ncc2c(n1)N(C1CCCCC1)CCC(=O)N2 [I-29, 4-(9-Cyclohexyl-6-oxo-6,7,8,9-tetrahydro-5H-pyrimido[4,5-b][1,4]diazepin-2-ylamino)-3-methoxy-N-(1-methyl-piperidin-4-yl)-benzamide]	500 to 5000 nM
COCCN1CCC(=O)N(C)c2cnc(Nc3ccc(C(=O)NC4CCN(C)CC4)cc3OC)nc21 [I-40, 3-Methoxy-4-[9-(2-methoxy-ethyl)-5-methyl-6-oxo-6,7,8,9-tetrahydro-5H-pyrimido[4,5-b][1,4]diazepin-2-ylamino]-N-(1-methyl-piperidin-4-yl)-benzamide]	500 to 5000 nM
CN1CCC(NC(=O)c2ccc(Nc3ncc4c(n3)N(C3CCCC3)CC3(CC3)C(=O)N4C)cc2)CC1 [I-62, 4-[(9-Cyclopentyl-6,7,8,9-tetrahydro-5-methyl-6-oxospiro[5H-pyrimido[4,5-b][1,4]diazepine-7,1′-cyclopropan]-2-yl)amino]-N-(1-methyl-4-piperidinyl)benzamide]	< 500 nM
COc1cc(C(=O)NC2CCN(C)CC2)ccc1Nc1ncc2c(n1)N1CCC[C@@H]1CC(=O)N2C [I-102, (3R)-3-methoxy-4-(6-methyl-5-oxo-2,3,3a,4,5,6-hexahydro-1H-6,8,10,10b-tetraaza-benzo[e]azulen-9-ylamino)-N-(1-methyl-piperidin-4-yl)-benzamide]	< 500 nM
COc1cc(C(=O)NC2CCN(C)CC2)ccc1N(C)c1ncc2c(n1)N(C1CCCCC1)CC(C)C(=O)N2C (racemic) [I-66, (rac)-4-[(9-Cyclohexyl-5,7-dimethyl-6-oxo-6,7,8,9-tetrahydro-5H-pyrimido[4,5-b][1,4]diazepin-2-yl)-methyl-amino]-3-methoxy-N-(1-methyl-piperidin-4-yl)-benzamide]	> 5000 nM
COc1cc(C(=O)NC2CCN(C)CC2)ccc1Nc1ncc2c(n1)N(Cc1ccccc1)CC(C)C(=O)N2C (racemic) [I-42, (rac)-4-(9-Benzyl-5,7-dimethyl-6-oxo-6,7,8,9-tetrahydro-5H-pyrimido[4,5-b][1,4]diazepin-2-ylamino)-3-methoxy-N-(1-methyl-piperidin-4-yl)-benzamide]	500 to 5000 nM
COc1ccc(C(=O)NC2CCOCC2)cc1Nc1ncc2c(n1)N(C1CCCC1)CC(C)C(=O)N2C (racemic) [I-74, (rac)-3-(9-Cyclopentyl-5,7-dimethyl-6-oxo-6,7,8,9-tetrahydro-5H-pyrimido[4,5-b][1,4]diazepin-2-ylamino)-4-methoxy-N-(tetrahydro-pyran-4-yl)-benzamide]	< 500 nM
CC1CN(C2CCCC2)c2nc(Nc3cccc(C(=O)Nc4cccnc4)c3)ncc2N(C)C1=O (racemic) [I-72, (rac)-3-(9-Cyclopentyl-5,7-dimethyl-6-oxo-6,7,8,9-tetrahydro-5H-pyrimido[4,5-b][1,4]diazepin-2-ylamino)-N-pyridin-3-yl-benzamide]	< 500 nM
CC1CN(C2CCCC2)c2nc(Nc3ccc(C(=O)NC4CCN(C)CC4)c(Cl)c3)ncc2N(C)C1=O (racemic) [I-84, (rac)-2-Chloro-4-(9-cyclopentyl-5,7-dimethyl-6-oxo-6,7,8,9-tetrahydro-5H-pyrimido[4,5-b][1,4]diazepin-2-ylamino)-N-(1-methyl-piperidin-4-yl)-benzamide]	< 500 nM
CC1CN(C2CCCC2)c2nc(Nc3ccc(C(=O)NCCCN(C)C)c(Cl)c3)ncc2N(C)C1=O (racemic) [I-83, (rac)-2-Chloro-4-(9-cyclopentyl-5,7-dimethyl-6-oxo-6,7,8,9-tetrahydro-5H-pyrimido[4,5-b][1,4]diazepin-2-ylamino)-N-(3-dimethylamino-propyl)-benzamide]	500 to 5000 nM

Reference: patent publication US7517873B2, “Substituted pyrimidodiazepines” (Hoffman-La Roche Inc., priority 2007, dated 2009)
